How the values were obtained:
Experiment in all cases: KINOMEscan competition binding
Conditions in all cases: compound 10.0 µM
CSNK1A1L (human) = CSNK1A1L (human) (UniProt Q8N752)
RPS6KA1 KD1 (human) = RPS6KA1 KD1 (human) (UniProt Q15418)
RAF1 (human) = RAF1 (human) (UniProt P04049)
EPHA3 (human) = EPHA3 (human) (UniProt P29320)
PRKD2 (human) = PRKD2 (human) (UniProt Q9BZL6)
TSSK1B (human) = TSSK1B (human) (UniProt Q9BXA7)
TNK2 (human) = TNK2 (human) (UniProt Q07912)
LTK (human) = LTK (human) (UniProt P29376)
Chain of LTK (human) (P29376 whole entry, looked up): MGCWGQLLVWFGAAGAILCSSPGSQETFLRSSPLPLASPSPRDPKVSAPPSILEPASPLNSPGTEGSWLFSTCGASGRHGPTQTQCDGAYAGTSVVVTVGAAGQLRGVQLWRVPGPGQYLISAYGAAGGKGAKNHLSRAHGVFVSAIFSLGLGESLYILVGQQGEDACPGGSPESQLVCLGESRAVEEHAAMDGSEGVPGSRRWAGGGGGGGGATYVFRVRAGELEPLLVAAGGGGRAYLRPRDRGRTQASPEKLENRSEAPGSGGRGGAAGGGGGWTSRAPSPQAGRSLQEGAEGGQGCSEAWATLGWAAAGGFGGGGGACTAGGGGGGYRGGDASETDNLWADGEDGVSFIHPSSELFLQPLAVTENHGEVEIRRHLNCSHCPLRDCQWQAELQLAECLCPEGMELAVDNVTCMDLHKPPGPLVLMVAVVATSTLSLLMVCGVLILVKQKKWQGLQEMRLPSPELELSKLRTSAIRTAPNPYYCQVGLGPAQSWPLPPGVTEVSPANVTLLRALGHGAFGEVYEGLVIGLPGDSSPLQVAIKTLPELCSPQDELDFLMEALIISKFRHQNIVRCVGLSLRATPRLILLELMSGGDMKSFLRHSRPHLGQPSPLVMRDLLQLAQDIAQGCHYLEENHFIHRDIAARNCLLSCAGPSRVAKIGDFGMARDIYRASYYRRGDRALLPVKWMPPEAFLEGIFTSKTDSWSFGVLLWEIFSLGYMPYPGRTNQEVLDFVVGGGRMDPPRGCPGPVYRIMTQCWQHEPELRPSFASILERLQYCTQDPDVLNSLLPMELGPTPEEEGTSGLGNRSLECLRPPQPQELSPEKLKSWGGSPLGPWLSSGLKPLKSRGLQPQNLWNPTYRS

CAMK4 (human) = CAMK4 (human) (UniProt Q16566)
TTK (human) = TTK (human) (UniProt P33981)
PRKAA1 (human) = PRKAA1 (human) (UniProt Q13131)
NLK (human) = NLK (human) (UniProt Q9UBE8)
Chain of NLK (human) (Q9UBE8 whole entry, looked up): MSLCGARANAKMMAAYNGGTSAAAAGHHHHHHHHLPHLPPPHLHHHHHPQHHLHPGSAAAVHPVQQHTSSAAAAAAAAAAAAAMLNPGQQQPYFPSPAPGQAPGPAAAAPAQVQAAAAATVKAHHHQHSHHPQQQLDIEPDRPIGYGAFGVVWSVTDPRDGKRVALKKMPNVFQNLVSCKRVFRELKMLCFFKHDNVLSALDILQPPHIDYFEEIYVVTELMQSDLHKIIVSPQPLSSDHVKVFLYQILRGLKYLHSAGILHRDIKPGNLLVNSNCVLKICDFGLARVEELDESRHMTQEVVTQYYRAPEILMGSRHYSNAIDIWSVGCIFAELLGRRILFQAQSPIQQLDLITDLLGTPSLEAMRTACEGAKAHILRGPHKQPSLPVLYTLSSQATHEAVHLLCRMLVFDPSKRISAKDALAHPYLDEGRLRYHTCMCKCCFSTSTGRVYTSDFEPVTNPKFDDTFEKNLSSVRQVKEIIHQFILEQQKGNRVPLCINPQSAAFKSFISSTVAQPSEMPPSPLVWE

CSNK2A2 (human) = CSNK2A2 (human) (UniProt P19784)
SRMS (human) = SRMS (human) (UniProt Q9H3Y6)
PRKG2 (human) = PRKG2 (human) (UniProt Q13237)
TAOK3 (human) = TAOK3 (human) (UniProt Q9H2K8)
Chain of TAOK3 (human) (Q9H2K8 whole entry, looked up): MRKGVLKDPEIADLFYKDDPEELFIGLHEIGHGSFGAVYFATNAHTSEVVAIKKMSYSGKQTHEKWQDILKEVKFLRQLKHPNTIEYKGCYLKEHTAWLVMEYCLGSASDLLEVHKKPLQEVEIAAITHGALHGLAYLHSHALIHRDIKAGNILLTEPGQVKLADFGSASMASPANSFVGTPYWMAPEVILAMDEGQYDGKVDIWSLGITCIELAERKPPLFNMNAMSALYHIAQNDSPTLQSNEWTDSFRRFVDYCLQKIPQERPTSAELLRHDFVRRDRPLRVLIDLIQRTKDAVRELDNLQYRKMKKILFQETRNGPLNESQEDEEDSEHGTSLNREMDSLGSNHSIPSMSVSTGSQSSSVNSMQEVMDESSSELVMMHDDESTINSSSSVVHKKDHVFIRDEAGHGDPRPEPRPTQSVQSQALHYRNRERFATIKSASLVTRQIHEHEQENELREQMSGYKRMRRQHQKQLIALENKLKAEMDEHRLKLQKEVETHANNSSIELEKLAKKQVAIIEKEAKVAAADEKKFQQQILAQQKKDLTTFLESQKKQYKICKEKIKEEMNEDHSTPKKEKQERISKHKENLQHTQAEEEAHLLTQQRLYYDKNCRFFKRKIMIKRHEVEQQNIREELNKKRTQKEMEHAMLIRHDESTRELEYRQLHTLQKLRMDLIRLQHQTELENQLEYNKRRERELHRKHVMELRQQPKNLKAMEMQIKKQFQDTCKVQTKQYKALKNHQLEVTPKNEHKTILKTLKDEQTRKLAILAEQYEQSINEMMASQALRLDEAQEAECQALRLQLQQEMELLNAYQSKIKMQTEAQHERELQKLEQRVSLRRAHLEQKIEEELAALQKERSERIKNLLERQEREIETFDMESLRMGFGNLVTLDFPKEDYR

PHKG1 (human) = PHKG1 (human) (UniProt Q16816)
Chain of PHKG1 (human) (Q16816 whole entry, looked up): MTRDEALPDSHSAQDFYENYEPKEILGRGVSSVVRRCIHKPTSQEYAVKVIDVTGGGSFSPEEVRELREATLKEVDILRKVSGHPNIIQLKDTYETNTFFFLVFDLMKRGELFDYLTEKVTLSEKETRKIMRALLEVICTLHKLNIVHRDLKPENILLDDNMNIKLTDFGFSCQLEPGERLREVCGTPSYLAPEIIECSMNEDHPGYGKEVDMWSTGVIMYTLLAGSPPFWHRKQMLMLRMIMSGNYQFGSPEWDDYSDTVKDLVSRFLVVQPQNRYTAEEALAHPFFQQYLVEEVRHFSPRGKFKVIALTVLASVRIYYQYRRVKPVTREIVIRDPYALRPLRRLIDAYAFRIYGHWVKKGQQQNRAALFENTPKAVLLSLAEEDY

TLK1 (human) = TLK1 (human) (UniProt Q9UKI8)
EPHB4 (human) = EPHB4 (human) (UniProt P54760)
CDC42BPB (human) = CDC42BPB (human) (UniProt Q9Y5S2)
SIK1 (human) = SIK1 (human) (UniProt P57059)
PRKCD (human) = PRKCD (human) (UniProt Q05655)
EIF2AK2 (human) = EIF2AK2 (human) (UniProt P19525)
BMPR1B (human) = BMPR1B (human) (UniProt O00238)
RPS6KA1 KD2 (human) = RPS6KA1 KD2 (human) (UniProt Q15418)
Chain of RPS6KA1 KD2 (human) (Q15418 whole entry, looked up): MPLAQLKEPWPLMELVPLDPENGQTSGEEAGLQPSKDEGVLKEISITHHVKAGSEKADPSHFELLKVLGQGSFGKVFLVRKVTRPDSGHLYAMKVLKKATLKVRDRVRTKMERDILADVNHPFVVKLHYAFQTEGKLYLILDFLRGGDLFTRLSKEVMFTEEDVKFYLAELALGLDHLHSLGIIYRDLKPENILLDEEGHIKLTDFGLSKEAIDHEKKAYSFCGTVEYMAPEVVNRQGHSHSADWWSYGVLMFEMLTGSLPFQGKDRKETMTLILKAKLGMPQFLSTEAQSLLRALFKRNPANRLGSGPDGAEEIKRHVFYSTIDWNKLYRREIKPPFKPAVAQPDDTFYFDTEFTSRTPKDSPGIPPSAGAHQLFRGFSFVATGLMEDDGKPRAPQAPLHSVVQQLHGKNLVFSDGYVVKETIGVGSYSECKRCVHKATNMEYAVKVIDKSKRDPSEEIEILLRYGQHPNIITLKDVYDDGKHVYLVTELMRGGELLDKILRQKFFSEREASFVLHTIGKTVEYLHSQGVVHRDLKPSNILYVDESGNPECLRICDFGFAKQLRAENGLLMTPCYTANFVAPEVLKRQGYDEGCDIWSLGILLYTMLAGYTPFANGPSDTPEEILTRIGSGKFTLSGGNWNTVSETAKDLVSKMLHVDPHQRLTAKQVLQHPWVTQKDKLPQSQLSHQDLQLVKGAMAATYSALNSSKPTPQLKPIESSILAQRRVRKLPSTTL

CHUK (human) = CHUK (human) (UniProt O15111)
PRKCQ (human) = PRKCQ (human) (UniProt Q04759)
PAK2 (human) = PAK2 (human) (UniProt Q13177)
CDC42BPG (human) = CDC42BPG (human) (UniProt Q6DT37)
Chain of CDC42BPG (human) (Q6DT37 whole entry, looked up): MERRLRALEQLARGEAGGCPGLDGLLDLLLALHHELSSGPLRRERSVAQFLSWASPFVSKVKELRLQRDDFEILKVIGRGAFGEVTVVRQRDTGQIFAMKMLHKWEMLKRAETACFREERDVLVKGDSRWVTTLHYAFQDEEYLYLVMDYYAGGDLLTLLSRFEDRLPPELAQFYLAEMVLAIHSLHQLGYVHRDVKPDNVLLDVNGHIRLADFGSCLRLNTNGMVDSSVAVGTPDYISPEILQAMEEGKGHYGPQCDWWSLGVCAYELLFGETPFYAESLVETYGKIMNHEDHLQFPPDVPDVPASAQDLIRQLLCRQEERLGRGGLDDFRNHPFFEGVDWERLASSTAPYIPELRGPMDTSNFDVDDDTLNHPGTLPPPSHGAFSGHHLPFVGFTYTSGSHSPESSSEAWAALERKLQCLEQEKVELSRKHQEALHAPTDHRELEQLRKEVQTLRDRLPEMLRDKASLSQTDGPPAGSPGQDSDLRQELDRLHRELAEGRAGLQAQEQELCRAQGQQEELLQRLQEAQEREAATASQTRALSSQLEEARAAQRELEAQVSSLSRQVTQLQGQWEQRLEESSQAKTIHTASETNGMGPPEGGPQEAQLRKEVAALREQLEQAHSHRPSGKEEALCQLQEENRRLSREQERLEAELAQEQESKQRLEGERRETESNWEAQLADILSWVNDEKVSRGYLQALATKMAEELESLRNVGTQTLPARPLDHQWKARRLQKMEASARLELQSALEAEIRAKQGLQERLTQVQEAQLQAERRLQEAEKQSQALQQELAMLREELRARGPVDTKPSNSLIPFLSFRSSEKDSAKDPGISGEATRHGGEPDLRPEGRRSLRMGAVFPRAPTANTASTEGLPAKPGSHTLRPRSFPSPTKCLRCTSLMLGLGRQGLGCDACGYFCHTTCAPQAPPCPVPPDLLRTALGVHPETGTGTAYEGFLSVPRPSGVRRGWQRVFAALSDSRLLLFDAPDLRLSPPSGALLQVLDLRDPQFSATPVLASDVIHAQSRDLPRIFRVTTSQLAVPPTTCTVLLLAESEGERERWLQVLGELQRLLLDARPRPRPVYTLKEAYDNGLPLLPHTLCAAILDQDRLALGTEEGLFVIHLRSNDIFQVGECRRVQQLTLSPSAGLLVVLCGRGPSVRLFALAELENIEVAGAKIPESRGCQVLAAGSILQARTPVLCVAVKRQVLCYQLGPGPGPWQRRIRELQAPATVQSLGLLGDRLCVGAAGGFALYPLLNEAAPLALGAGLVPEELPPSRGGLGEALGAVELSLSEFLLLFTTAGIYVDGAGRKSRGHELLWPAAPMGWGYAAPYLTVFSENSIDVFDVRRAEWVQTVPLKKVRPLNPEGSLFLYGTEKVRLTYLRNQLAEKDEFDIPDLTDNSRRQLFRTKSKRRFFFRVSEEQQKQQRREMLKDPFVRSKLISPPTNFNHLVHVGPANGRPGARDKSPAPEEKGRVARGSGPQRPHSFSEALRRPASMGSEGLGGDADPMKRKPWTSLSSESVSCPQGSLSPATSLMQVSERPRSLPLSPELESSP

[1] = target: TYK2 JH1 catalytic (human) (UniProt P29597)
CAMKK1 (human) = CAMKK1 (human) (UniProt Q8N5S9)
MAP4K4 (human) = MAP4K4 (human) (UniProt O95819)
ACVR1 (human) = ACVR1 (human) (UniProt Q04771)
EPHA1 (human) = EPHA1 (human) (UniProt P21709)
SRPK3 (human) = SRPK3 (human) (UniProt Q9UPE1)
TESK1 (human) = TESK1 (human) (UniProt Q15569)
CAMK1G (human) = CAMK1G (human) (UniProt Q96NX5)
TNNI3K (human) = TNNI3K (human) (UniProt Q59H18)
MAPK13 (human) = MAPK13 (human) (UniProt O15264)
[2] = test system: KIT (human), P10721 [V559D]

Chain of RPS6KA1 KD1 (human) (Q15418 whole entry, looked up): as the sequence (Q15418 whole entry, looked up) above

Compound | kinase still bound, per cent of control (CSNK1A1L (human)) [%] | kinase still bound, per cent of control (RPS6KA1 KD1 (human)) [%] | kinase still bound, per cent of control (RAF1 (human)) [%] | kinase still bound, per cent of control (EPHA3 (human)) [%] | kinase still bound, per cent of control (PRKD2 (human)) [%] | kinase still bound, per cent of control (TSSK1B (human)) [%] | kinase still bound, per cent of control (TNK2 (human)) [%] | kinase still bound, per cent of control (LTK (human)) [%] | kinase still bound, per cent of control (CAMK4 (human)) [%] | kinase still bound, per cent of control (TTK (human)) [%] | kinase still bound, per cent of control (PRKAA1 (human)) [%] | kinase still bound, per cent of control (NLK (human)) [%] | kinase still bound, per cent of control (CSNK2A2 (human)) [%] | kinase still bound, per cent of control (SRMS (human)) [%] | kinase still bound, per cent of control (PRKG2 (human)) [%] | kinase still bound, per cent of control (TAOK3 (human)) [%] | kinase still bound, per cent of control (PHKG1 (human)) [%] | kinase still bound, per cent of control (TLK1 (human)) [%] | kinase still bound, per cent of control (EPHB4 (human)) [%] | kinase still bound, per cent of control (CDC42BPB (human)) [%] | further results
Cc1ccc2nc(NCCN)c3ncc(C)n3c2c1 | 100 | 79 | 100 | 100 | 72 | 100 | 100 | 95 | 100 | 100 | 82 | 100 | 86 | 90 | 100 | 59 | 95 | 82 | 100 | 100 | kinase still bound, per cent of control (SIK1 (human)): 100%; kinase still bound, per cent of control (PRKCD (human)): 100%; kinase still bound, per cent of control (EIF2AK2 (human)): 100%; kinase still bound, per cent of control (BMPR1B (human)): 71%; kinase still bound, per cent of control (RPS6KA1 KD2 (human)): 46%; kinase still bound, per cent of control (CHUK (human)): 86%; kinase still bound, per cent of control (PRKCQ (human)): 99%; kinase still bound, per cent of control (PAK2 (human)): 94%; kinase still bound, per cent of control (CDC42BPG (human)): 94%; kinase still bound, per cent of control [1]: 100%; kinase still bound, per cent of control (CAMKK1 (human)): 100%; kinase still bound, per cent of control (MAP4K4 (human)): 100%; kinase still bound, per cent of control (ACVR1 (human)): 100%; kinase still bound, per cent of control (EPHA1 (human)): 79%; kinase still bound, per cent of control (SRPK3 (human)): 100%; kinase still bound, per cent of control (TESK1 (human)): 79%; kinase still bound, per cent of control (CAMK1G (human)): 88%; kinase still bound, per cent of control (TNNI3K (human)): 100%; kinase still bound, per cent of control (MAPK13 (human)): 100%; kinase still bound, per cent of control [2]: 23%
O=C1Nc2ccc(I)cc2/C1=C/c1cc(Br)c(O)c(Br)c1 | 100 | 42 | 0.65 | 66 | 100 | 65 | 74 | 47 | 100 | 17 | 100 | 56 | 3.2 | 65 | 83 | 87 | 85 | 100 | 100 | 100 | kinase still bound, per cent of control (SIK1 (human)): 83%; kinase still bound, per cent of control (PRKCD (human)): 70%; kinase still bound, per cent of control (EIF2AK2 (human)): 75%; kinase still bound, per cent of control (BMPR1B (human)): 27%; kinase still bound, per cent of control (RPS6KA1 KD2 (human)): 12%; kinase still bound, per cent of control (CHUK (human)): 100%; kinase still bound, per cent of control (PRKCQ (human)): 90%; kinase still bound, per cent of control (PAK2 (human)): 53%; kinase still bound, per cent of control (CDC42BPG (human)): 91%; kinase still bound, per cent of control [1]: 8.2%; kinase still bound, per cent of control (CAMKK1 (human)): 7.6%; kinase still bound, per cent of control (MAP4K4 (human)): 4.2%; kinase still bound, per cent of control (ACVR1 (human)): 31%; kinase still bound, per cent of control (EPHA1 (human)): 98%; kinase still bound, per cent of control (SRPK3 (human)): 7.8%; kinase still bound, per cent of control (TESK1 (human)): 100%; kinase still bound, per cent of control (CAMK1G (human)): 44%; kinase still bound, per cent of control (TNNI3K (human)): 76%; kinase still bound, per cent of control (MAPK13 (human)): 100%; kinase still bound, per cent of control [2]: 1.8%
Cn1c(=O)n(-c2ccc(C(C)(C)C#N)cc2)c2c3cc(-c4cnc5ccccc5c4)ccc3ncc21 | 100 | 100 | 100 | 100 | 100 | 100 | 100 | 33 | 100 | 100 | 100 | 100 | 100 | 100 | 100 | 100 | 100 | 100 | 100 | 100 | kinase still bound, per cent of control (SIK1 (human)): 100%; kinase still bound, per cent of control (PRKCD (human)): 100%; kinase still bound, per cent of control (EIF2AK2 (human)): 100%; kinase still bound, per cent of control (BMPR1B (human)): 100%; kinase still bound, per cent of control (RPS6KA1 KD2 (human)): 100%; kinase still bound, per cent of control (CHUK (human)): 100%; kinase still bound, per cent of control (PRKCQ (human)): 100%; kinase still bound, per cent of control (PAK2 (human)): 100%; kinase still bound, per cent of control (CDC42BPG (human)): 100%; kinase still bound, per cent of control [1]: 100%; kinase still bound, per cent of control (CAMKK1 (human)): 100%; kinase still bound, per cent of control (MAP4K4 (human)): 100%; kinase still bound, per cent of control (ACVR1 (human)): 100%; kinase still bound, per cent of control (EPHA1 (human)): 100%; kinase still bound, per cent of control (SRPK3 (human)): 100%; kinase still bound, per cent of control (TESK1 (human)): 100%; kinase still bound, per cent of control (CAMK1G (human)): 100%; kinase still bound, per cent of control (TNNI3K (human)): 100%; kinase still bound, per cent of control (MAPK13 (human)): 100%; kinase still bound, per cent of control [2]: 100%

From the kinase profiling compilation of Christmann-Franck et al. (2016)
